Test systems include A549; CAKI-1; DU-145; EKVX; HCT-15; MDA-MB-435; MOLT-4; NCI-H226; NCI-H23; NCI-H460; OVCAR-8; SF-539; SK-MEL-28; SN12C; SNB-19; SNB-75; SR; SW-620; UACC-62.
Assay in all cases: NCI anticancer screen, dose series, 48 h

The source of these data is ChEMBL document CHEMBL1201862, “PubChem BioAssay data set” (2004).

Structures are written as SMILES.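 Five compound concentrations were applied to cells in 96-well plates for 48 hours; endpoints were derived by simple linear interpolation of the resulting dose-response curve. GI50 = concentration required for 50% inhibition of growth.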 Active and inactive are the calls of the source. Cut-off read from the data, not from the text of the source: active = GI50 up to about 1.1 µM and inactive = higher.

Take `CC(=O)Oc1c2c(c3n(c1=O)CCCC3)C(=O)N(c1ccccc1)C2=O`: the GI50 in the assay on A549 was > 100 µM (inactive); with CAKI-1, > 100 µM (inactive); with DU-145, > 100 µM (inactive); in the assay on EKVX, 94 µM (inactive); with HCT-15 it was 59 µM; in the assay on MDA-MB-435, 46.9 µM (inactive). The GI50 with MOLT-4 is > 100 µM (inactive); in the assay with NCI-H226, 60 µM (inactive); with NCI-H23, > 100 µM (inactive); in the assay on NCI-H460, > 100 µM (inactive); in the assay with OVCAR-8, > 100 µM (inactive); in the assay with SF-539, > 100 µM (inactive). The GI50 in the assay on SK-MEL-28 was > 100 µM (inactive); in the assay on SN12C, 83.2 µM (inactive); in the assay on SNB-19, > 100 µM (inactive); with SNB-75, 87.5 µM (inactive); with SR it was > 100 µM (inactive); in the assay on SW-620 it was > 100 µM (inactive). For the same compound, in the assay on UACC-62, the GI50 is 63.7 µM (inactive).

On to `CN1C(=O)[C@@H]2N(CSC2(C)C)C1=S`, for which the GI50 in the assay on A549 was > 100 µM (inactive); in the assay with CAKI-1 it was > 100 µM (inactive); in the assay with DU-145, > 100 µM (inactive); with EKVX, > 100 µM (inactive); in the assay with HCT-15, greater than 100 µM; in the assay on MDA-MB-435 it was > 100 µM (inactive). In addition, the GI50 in the assay with MOLT-4, in the assay on NCI-H226, in the assay with NCI-H23, in the assay on NCI-H460, in the assay with OVCAR-8 and in the assay on SF-539 was > 100 µM (inactive) in each case. The GI50 with SK-MEL-28, with SN12C, in the assay with SNB-19, in the assay with SNB-75, with SR and with SW-620 was > 100 µM (inactive) in each case. For the same compound, the GI50 in the assay on UACC-62 is > 100 µM (inactive).

As to `O=S(=O)(O)n1ccnc1`, the GI50 in the assay on A549 was > 100 µM (inactive); with CAKI-1, > 100 µM (inactive); with DU-145 it was > 100 µM (inactive); in the assay on EKVX it was > 100 µM (inactive); in the assay with HCT-15, greater than 100 µM; with MDA-MB-435 it was > 100 µM (inactive). For the same compound, the GI50 in the assay with MOLT-4, in the assay on NCI-H226, in the assay on NCI-H23, with NCI-H460, in the assay with OVCAR-8 and with SF-539 was > 100 µM (inactive) throughout. Besides, the GI50 in the assay with SK-MEL-28, in the assay on SN12C, in the assay on SNB-19, in the assay on SNB-75, with SR and in the assay on SW-620 was > 100 µM (inactive) each time. Also, the GI50 with UACC-62 was > 100 µM (inactive).

As for `CC1=C2C(=O)c3ccccc3C(=O)[C@H]2C[C@@H](N2CCCCCC2=O)O1`, the GI50 was 20.3 µM (inactive) with A549; 16.9 µM (inactive) in the assay with CAKI-1; 18.3 µM (inactive) in the assay on DU-145; 23.1 µM (inactive) in the assay with EKVX; 20.7 µM in the assay with HCT-15; 16 µM (inactive) in the assay with MDA-MB-435. Also, the GI50 in the assay on MOLT-4 is 14.7 µM (inactive); in the assay with NCI-H226 it was 30.5 µM (inactive); in the assay on NCI-H23 it was 14.9 µM (inactive); with NCI-H460 it was 18.8 µM (inactive); in the assay with OVCAR-8, 21.5 µM (inactive); in the assay on SF-539, 19 µM (inactive). The GI50 is 18.7 µM (inactive) with SK-MEL-28; 17.7 µM (inactive) with SN12C; 21 µM (inactive) in the assay with SNB-19; 23.4 µM (inactive) with SNB-75; 6.92 µM (inactive) in the assay on SR; 17.3 µM (inactive) with SW-620. Moreover, the GI50 in the assay with UACC-62 is 19.2 µM (inactive).

Regarding `COC(=O)N/N=C(\c1ccccc1)c1ccc(OC)cc1`, the GI50 is > 100 µM (inactive) in the assay on A549; > 100 µM (inactive) with CAKI-1; > 100 µM (inactive) in the assay on DU-145; > 100 µM (inactive) in the assay on EKVX; greater than 100 µM in the assay with HCT-15; 76.7 µM (inactive) with MDA-MB-435. The GI50 in the assay with MOLT-4, in the assay on NCI-H226, in the assay with NCI-H23, with NCI-H460, with OVCAR-8 and in the assay with SF-539 was > 100 µM (inactive) throughout. For the same compound, the GI50 in the assay on SK-MEL-28 was > 100 µM (inactive); with SN12C, > 100 µM (inactive); with SNB-19 it was > 100 µM (inactive); with SNB-75 it was 78.7 µM (inactive); with SR, > 100 µM (inactive); in the assay with SW-620, > 100 µM (inactive). Further, the GI50 in the assay with UACC-62 is > 100 µM (inactive).

For `c1ccc(C2=NC3OC2c2ccccc23)cc1` (centres undefined), the GI50 in the assay on A549 is > 10 µM (inactive); in the assay on CAKI-1 it was > 10 µM (inactive); with DU-145 it was > 10 µM (inactive); in the assay with EKVX it was > 10 µM (inactive); in the assay on HCT-15, greater than 10 µM; in the assay on MDA-MB-435, > 10 µM (inactive). Also, the GI50 with MOLT-4, with NCI-H226, in the assay with NCI-H23, with NCI-H460, with OVCAR-8 and with SF-539 was > 10 µM (inactive) in each case. In addition, the GI50 in the assay with SK-MEL-28, with SN12C, in the assay with SNB-19, in the assay with SNB-75, in the assay with SR and in the assay on SW-620 was > 10 µM (inactive) each time. Moreover, in the assay on UACC-62, the GI50 was > 10 µM (inactive).

For the compound `O=C(CNc1nccs1)Nn1cnc2ccc(S(=O)(=O)Nc3nccs3)cc2c1=O`, the GI50 with A549 is > 100 µM (inactive); with CAKI-1 it was > 100 µM (inactive); in the assay on DU-145, > 100 µM (inactive); in the assay on EKVX, > 100 µM (inactive); with HCT-15, greater than 100 µM; in the assay on MDA-MB-435 it was > 100 µM (inactive). In addition, the GI50 in the assay with MOLT-4, in the assay on NCI-H226, in the assay with NCI-H23, in the assay with NCI-H460, in the assay with OVCAR-8 and in the assay on SF-539 was > 100 µM (inactive) in each case. For the same compound, the GI50 in the assay on SK-MEL-28 is > 100 µM (inactive); in the assay with SN12C it was > 100 µM (inactive); in the assay with SNB-19, > 100 µM (inactive); in the assay on SNB-75 it was > 100 µM (inactive); in the assay with SR, 35.6 µM (inactive); with SW-620, > 100 µM (inactive). For the same compound, the GI50 in the assay on UACC-62 was > 100 µM (inactive).

As for `CCOC(=O)/C=C(/C(=O)OCC)n1cnc2c(=O)[nH]c(NC(C)=O)nc21`, the GI50 was > 100 µM (inactive) in the assay with A549; > 100 µM (inactive) in the assay with CAKI-1; > 100 µM (inactive) in the assay with DU-145; > 100 µM (inactive) with EKVX; greater than 100 µM in the assay with HCT-15; > 100 µM (inactive) in the assay with MDA-MB-435. The GI50 with MOLT-4, with NCI-H226, in the assay with NCI-H23, in the assay on NCI-H460, in the assay on OVCAR-8 and in the assay on SF-539 was > 100 µM (inactive) throughout. Also, the GI50 with SK-MEL-28, with SN12C, in the assay on SNB-19, in the assay with SNB-75, in the assay on SR and in the assay with SW-620 was > 100 µM (inactive) throughout. Also, the GI50 in the assay with UACC-62 was > 100 µM (inactive).

As to `CCCC(=O)NC1=C(Cl)C(=O)c2ccccc2C1=O`, the GI50 in the assay on A549 was 4.39 µM (inactive); in the assay with CAKI-1 it was 3 µM (inactive); in the assay with DU-145, 8.32 µM (inactive); in the assay with EKVX, 3.72 µM (inactive); in the assay with HCT-15, 1.68 µM; in the assay on MDA-MB-435, 3.42 µM (inactive). Moreover, the GI50 is 2.56 µM (inactive) with MOLT-4; 7.78 µM (inactive) in the assay on NCI-H226; 3.03 µM (inactive) in the assay with NCI-H23; 3.64 µM (inactive) in the assay with NCI-H460; 5.02 µM (inactive) in the assay on OVCAR-8; 2.45 µM (inactive) in the assay on SF-539. Further, the GI50 with SK-MEL-28 is 4.33 µM (inactive); in the assay with SN12C, 10.8 µM (inactive); in the assay on SNB-19, 6.89 µM (inactive); in the assay on SNB-75 it was 5.09 µM (inactive); with SR it was 1.83 µM (inactive); with SW-620 it was 1.79 µM (inactive). Further, in the assay on UACC-62, the GI50 was 2.32 µM (inactive).

Consider `CC(=O)O/N=C1\C=Cc2c(no[n+]2[O-])C1=O`, for which the GI50 with A549 is 16.1 µM (inactive); in the assay on CAKI-1 it was 20.5 µM (inactive); with DU-145, 17.9 µM (inactive); in the assay on EKVX it was 17.3 µM (inactive); in the assay with HCT-15 it was 19.8 µM; in the assay on MDA-MB-435, 20.6 µM (inactive). Further, the GI50 with MOLT-4 was 10.4 µM (inactive); with NCI-H226, > 100 µM (inactive); in the assay with NCI-H23, 20 µM (inactive); with NCI-H460 it was 34.7 µM (inactive); in the assay on OVCAR-8, 12.3 µM (inactive); with SF-539, 17.3 µM (inactive). Further, the GI50 is 21.6 µM (inactive) with SK-MEL-28; 18.5 µM (inactive) in the assay with SN12C; > 100 µM (inactive) in the assay with SNB-19; 19.8 µM (inactive) with SNB-75; 15.8 µM (inactive) with SR; 3.37 µM (inactive) with SW-620. Further, the GI50 with UACC-62 was 16 µM (inactive).

For the compound `O=[N+]([O-])c1ccc(NC(=S)Nc2ccccn2)cc1`, the GI50 in the assay on A549 was 19.1 µM (inactive); in the assay with CAKI-1 it was 5.11 µM (inactive); in the assay on DU-145, 7.5 µM (inactive); with EKVX, 8.45 µM (inactive); in the assay on HCT-15 it was 18.8 µM; with MDA-MB-435 it was 20.8 µM (inactive). For the same compound, the GI50 in the assay with MOLT-4 is 16.9 µM (inactive); with NCI-H226, 22.7 µM (inactive); with NCI-H23, 63.4 µM (inactive); in the assay on NCI-H460, 23.3 µM (inactive); in the assay on OVCAR-8 it was 31.5 µM (inactive); in the assay on SF-539, 8.63 µM (inactive). The GI50 in the assay on SK-MEL-28 was > 95.3 µM (inactive); in the assay with SN12C, 37.2 µM (inactive); with SNB-19, 57.3 µM (inactive); in the assay on SNB-75, 18 µM (inactive); in the assay on SR, 5.28 µM (inactive); in the assay with SW-620 it was 40.3 µM (inactive). Also, the GI50 in the assay on UACC-62 was 19.9 µM (inactive).
